# Results: patent US6620837B1, “Antithrombotic agents” (Eli Lilly and Company, priority 1999, dated 2003)
# Counter-ions that a name gives are not always drawn.
# How the values were obtained:
# [1] = Volume of distribution (VD) after oral dosing, pharmacokinetic model; format: in vivo, dog; settings: VD=Clearance/K; Clearance=Dose/AUC following oral dosing; compounds of the invention
# Excerpt: Many of the antithrombotic compounds disclosed in the prior art are lipophilic and, therefore, undergo high volumes of distribution from the plasma component and into the tissues. Since thrombin resides in the plasma, this tissue distribution is not preferred. […] Data in Table 1 below confirms that the compounds of the present invention have lower volumes of distribution and, therefore, better pharmacokinetic properties than their corresponding compounds of formula I in which R^d is hydrogen.
# The Volume of Distribution (VD) was calculated according to the standard equation:
# where Clearance=Dose (ug)/AUC (ug/ml) where AUC is the amount of drug present in plasma following oral dosing and is measured as the area under a curve of drug concentration versus time. K(h^−1) is the elimination rate constant.
# Test compound is formulated immediately prior to dosing by dissolving in sterile 0.9 percent saline to a 5 mg/mL preparation. Dogs are given a single 2 mg/kg dose of test compound by oral gavage. Blood samples (4.5 mL) are taken from the cephalic vein at 0.25, 0.5, 0.75, 1, 2, 3, 4 and 6 hours after dosing. Samples are collected in citrated Vacutainer tubes and kept on ice prior to reduction to plasma by centrifugation. Plasma samples are analyzed by HPLC MS. Plasma concentration of test compound is recorded and used to calculate the pharmacokinetic parameters: elimination rate constant, Ke; total clearance, Clt; volume of distribution, VD; time of maximum plasma test compound concentration, Tmax; maximum concentration of test compound of Tmax, Cmax; plasma half-life, t0.5; and area under the curve, A.U.C.; fraction of test compound absorbed, F.
SMILES,VD [1],melting point
"COC(=O)CCCOc1ccc(-c2sc3ccccc3c2Cc2ccc(OCCN3CCCC3)cc2)cc1C(N)=O [Example 4, 2-(3-Carbomethoxypropoxy)-5-[3-[4-[2-(1-pyrrolidinyl)ethoxy]benzyl]benzo[b]thiophen-2-yl]benzamide Oxalate Salt]",3.36 L/kg,–
"NC(=O)CCCOc1cc(-c2sc3ccccc3c2Cc2ccc(OCCN3CCCC3=O)cc2)ccc1OCCN1CCCC1 [Example 8, 2-[3-(4-Amino-4-oxobutoxy)-4-[2-(1-pyrrolidinyl)ethoxy]phenyl]-3-[4-[2-(2-oxopyrrolidin-1-yl)ethoxy]-benzyl]benzo[b]thiophene Oxalate]",13.53 L/kg,–
O=C([O-])CCCOc1cc(-c2sc3ccccc3c2C(=O)c2ccc(OCCN3CCCC3=O)cc2)ccc1OCCN1CCCC1.[Li+] [Example 11],5.13 L/kg,–

# Continued, values first:
VD [1],melting point,SMILES
1.27 L/kg,253 to 255 °C (dec.),"O=C([O-])c1cc(-c2sc3ccccc3c2Cc2ccc(OCCN3CCCC3)cc2)ccc1OCCN1CCCC1.[Na+] [Example 1, 2-[2-(1-Pyrrolidinyl)ethoxy]-5-[3-[4-[2-(1-pyrrolidinyl)ethoxy]benzyl]benzo[b]thiophen-2-yl]benzoic Acid Sodium Salt]"
0.46 L/kg,> 250 °C,"O=C([O-])CCCOc1ccc(-c2sc3ccccc3c2Cc2ccc(OCCN3CCCC3)cc2)cc1C(=O)[O-].[Na+].[Na+] [Example 2, 2-(3-Carboxypropoxy)-5-[3-[4-[2-(1-pyrrolidinyl)ethoxy]benzyl]benzo[b]thiophen-2-yl]benzoic Acid Disodium Salt]"
